Read-outs that look alike come from different tables or passages of the source.
Tests used:
KRas wild type = KRas wild type (Homo sapiens, UniProt P01116); experiment: Ras GTP binding domain inhibition assay (labeled-GTP competition, cell-free); design: made in house
Outline: (§1)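 Immobilized His-tagged protein (Ni plate, 10-30 μg/mL, overnight 4° C); compound 20 μM or dilution series, 1% DMSO, 3 h RT, ±Sos 556-1049 last hour; Cy3/Cy5-GTP 100 nM, 45 min RT; 3× wash; bound fluorescence read.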

Rho-A = Rho-A (Homo sapiens, UniProt P61586); experiment: as above; design: made in house
Outline: as §1

Rac-1 = Rac-1 (Homo sapiens, UniProt P63000); experiment: as above; design: made in house
Outline: as §1

[1] = tested on: ERK1/2 phosphorylation in Panc-1 cells; experiment: Western ERK1/2 cell-based phosphorylation assay; design: species or system human; settings: at 10 μM, values in brackets < > are activation %, not inhibition
Outline: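 Western blot with anti-phospho-p44/42 (Thr202/Tyr204) measured ERK1/2 phosphorylation after 15 min EGF (1.5 ng/ml) stimulation. Beforehand, serum-starved (0.5% FBS, overnight) Panc-1 cells received compounds for 6 h at 37 °C, at 10 μM final in 0.3% DMSO or as dilution series for IC50.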

[2] = tested on: MIA-PaCa-2 pancreatic cancer cell line (KRAS G12C); experiment: Cell proliferation assay (CellTiter 96 Aqueous One); assay type: cell-based; settings: Homo sapiens; for IC50: MIA PaCa-2, MIA PaCa-2; for inhibition at 10 µM: MIA PaCa-2, read-out: % inh cell proliferation (10 μM) in MIA PaCa-2
Outline: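 Percent inhibition of proliferation is derived from MTS absorbance data. Cells seeded at 2000–5000 per well were grown overnight before treatment. Compounds, at 10 μM final or in dilution series, stayed on cells for 2–4 days in medium containing 10% FBS and 0.3% DMSO.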

[3] = with SOS, read-out: KRas wild type + SOS: % inh.
[4] = without SOS, read-out: KRas wild type: % inh.
[5] = with SOS, read-out: Rho-A + SOS: % inh.
[6] = without SOS, read-out: Rho-A: % inh.
[7] = with SOS, read-out: Rac-1 + SOS: % inh.
[8] = without SOS, read-out: Rac-1: % inh.

Compound	inhibition at 20 µM (KRas wild type; [3]) [%]	inhibition at 20 µM (KRas wild type; [4]) [%]	inhibition at 20 µM (Rho-A; [5]) [%]	inhibition at 20 µM (Rho-A; [6]) [%]	inhibition at 20 µM (Rac-1; [7]) [%]	inhibition at 20 µM (Rac-1; [8]) [%]	IC50 [2] [µM]	% inh of ERK1/2 phosphorylation in PANC-1 [1]	inhibition at 10 µM [2] [%]
Cc1c(-c2ccn(C(C)C)n2)sc2nc(-c3nccn3C)nc(NCc3c[nH]cn3)c12 [Compound 59, N-((1H-Imidazol-4-yl)methyl)-6-(1-isopropyl-1H-pyrazol-3-yl)-5-methyl-2-(1-methyl-1H-imidazol-2-yl)thieno[2,3-d]pyrimidin-4-amine]	76 to 100	26 to 50	–	51 to 75	–	51 to 75	5 to 10	0 (0% inhibition)	51 to 75
Cc1c(-c2ccn(C(C)C)n2)sc2nc(-c3nccn3C)nc(NCCc3cn(C)cn3)c12 [Compound 58, 6-(1-Isopropyl-1H-pyrazol-3-yl)-5-methyl-2-(1-methyl-1H-imidazol-2-yl)-N-(2-(1-methyl-1H-imidazol-4-yl)ethyl)thieno[2,3-d]pyrimidin-4-amine]	76 to 100	76 to 100	–	76 to 100	–	26 to 50	5 to 10	A (1-25% inhibition)	76 to 100
Cc1c(-c2ccn(C(C)C)n2)sc2nc(-c3nccn3C)nc(NCc3n[nH]c(=O)n3C)c12 [Compound 60, 5-(((6-(1-Isopropyl-1H-pyrazol-3-yl)-5-methyl-2-(1-methyl-1H-imidazol-2-yl)thieno[2,3-d]pyrimidin-4-yl)amino)methyl)-4-methyl-2,4-dihydro-3H-1,2,4-triazol-3-one]	51 to 75	51 to 75	–	76 to 100	–	51 to 75	> 10	0 (0% inhibition)	1 to 25
COc1cccc(Nc2nc(-c3nccn3C)nc3sc(-c4ccn(C(C)C)n4)c(C)c23)n1.Cl [Compound 65, 6-(1-Isopropyl-1H-pyrazol-3-yl)-N-(6-methoxypyridin-2-yl)-5-methyl-2-(1-methyl-1H-imidazol-2-yl)thieno[2,3-d]pyrimidin-4-amine hydrochloride salt]	51 to 75	26 to 50	–	51 to 75	–	26 to 50	5 to 10	D (76-100% inhibition)	76 to 100
NC(=O)c1nc(O)c2scc(-c3ccccn3)c2n1 [Compound 18, 4-Hydroxy-7-(pyridin-2-yl)thieno[3,2-d]pyrimidine-2-carboxamide]	1 to 25	26 to 50	26 to 50	26 to 50	26 to 50	26 to 50	> 10	0 (0% inhibition)	0

More lines, main results first:

inhibition at 20 µM (KRas wild type; [3]) [%]	inhibition at 20 µM (KRas wild type; [4]) [%]	inhibition at 20 µM (Rho-A; [5]) [%]	inhibition at 20 µM (Rho-A; [6]) [%]	inhibition at 20 µM (Rac-1; [7]) [%]	inhibition at 20 µM (Rac-1; [8]) [%]	IC50 [2] [µM]	Compound	% inh of ERK1/2 phosphorylation in PANC-1 [1]	inhibition at 10 µM [2] [%]
76 to 100	51 to 75	76 to 100	51 to 75	51 to 75	51 to 75	5 to 10	CO[C@H]1C[C@@H](Nc2nc(-c3nccn3C)nc3sc(-c4ccn(C(C)C)n4)c(C)c23)C[C@H]1OC [Compound 42, N-((1r,3R,4S)-3,4-Dimethoxycyclopentyl)-6-(1-isopropyl-1H-pyrazol-3-yl)-5-methyl-2-(1-methyl-1H-imidazol-2-yl)thieno[2,3-d]pyrimidin-4-amine]	B (26-50% inhibition)	51 to 75
26 to 50	51 to 75	–	51 to 75	–	76 to 100	5 to 10	Oc1nc(-c2nccn2CCOCc2ccccc2)nc2c(-c3ccccn3)csc12 [Compound 83, 2-(1-(2-(Benzyloxy)ethyl)-1H-imidazol-2-yl)-7-(pyridin-2-yl)thieno[3,2-d]pyrimidin-4-ol]	B (26-50% inhibition)	76 to 100
76 to 100	51 to 75	51 to 75	51 to 75	26 to 50	26 to 50	< 1	CO[C@H]1CC[C@@H](Nc2nc(-c3nccn3C)nc3sc(-c4ccn(C(C)C)n4)c(-c4ccccc4)c23)C1 [Compound 5, 6-(1-Isopropyl-1H-pyrazol-3-yl)-N-((1R,3S)-3-methoxycyclopentyl)-2-(1-methyl-1H-imidazol-2-yl)-5-phenylthieno[2,3-d]pyrimidin-4-amine]	D (76-100% inhibition)	76 to 100
51 to 75	76 to 100	76 to 100	76 to 100	76 to 100	76 to 100	> 10	Cc1c(-c2ccn(C(C)C)n2)sc2nc(-c3nccn3C)nc(NCCc3nnn[nH]3)c12 [Compound 46, N-(2-(1H-Tetrazol-5-yl)ethyl)-6-(1-isopropyl-1H-pyrazol-3-yl)-5-methyl-2-(1-methyl-1H-imidazol-2-yl)thieno[2,3-d]pyrimidin-4-amine]	0 (0% inhibition)	1 to 25
76 to 100	26 to 50	51 to 75	51 to 75	26 to 50	–	< 1	CO[C@@H]1CC[C@H](Nc2nc(-c3nccn3C)nc3sc(-c4ccn(C(C)C)n4)c(C)c23)C1 [Compound 31, 6-(1-Isopropyl-1H-pyrazol-3-yl)-N-((1S,3R)-3-methoxycyclopentyl)-5-methyl-2-(1-methyl-1H-imidazol-2-yl)thieno[2,3-d]pyrimidin-4-amine]	D (76-100% inhibition)	76 to 100
26 to 50	26 to 50	51 to 75	51 to 75	26 to 50	26 to 50	5 to 10	COC1CCCN(c2nc(-c3ccccn3)nc3sc(-c4ccn(C(C)C)n4)c(C)c23)C1 (racemic) [Compound 70, Rac-6-(1-Isopropyl-1H-pyrazol-3-yl)-4-(3-methoxypiperidin-1-yl)-5-methyl-2-(pyridin-2-yl)thieno[2,3-d]pyrimidine]	0 (0% inhibition)	76 to 100
76 to 100	76 to 100	76 to 100	76 to 100	76 to 100	76 to 100	> 10	COCCn1ccnc1-c1nc(N[C@@H]2CC[C@H](OC)C2)c2ccsc2n1 (racemic) [Compound 8, Rac-N-((1R,3S)-3-methoxycyclopentyl)-2-(1-(2-methoxyethyl)-1H-imidazol-2-yl)thieno[2,3-d]pyrimidin-4-amine]	0 (0% inhibition)	26 to 50

From US20230227466A1, “SUBSTITUTED THIENOPYRIMIDINES THAT INTERACT WITH THE RAS SUPERFAMILY FOR THE TREATMENT OF CANCERS, INFLAMMATORY DISEASES, RASOPATHIES, AND FIBROTIC DISEASE” (SHY Therapeutics, LLC, priority 2020, published 2023)
